Assay results: patent US12583845B2, “Compositions and methods for treating diseases, disorders and conditions involving trinucleotide repeats” (The Research Foundation for the State University of New York, priority 2021, dated 2026)
“Also recorded” adds a separate entry of the source.

Tests used:
patient-derived myotubes = assay: DM1 splicing rescue in patient-derived myotubes; type: cell-based, human
DM1 fibroblasts = assay: RT-PCR analysis of INSR exon 11 mis-splicing in DM1 fibroblasts; type: cell-based, human; conditions: FIG. 2B
Description: (§1) FIG. 2A presents the chemical structures of furamidine, HM19A and HM19B. […] (ANOVA two-tailed test, *p<0.05 and **p<0.01).
(§2) DM splicing panel analysis: MPCs are evaluated starting with HM19A &19B in control and DM cells using a 5-point dose-response treatment. Data from the characterization of multiple DM1 & DM2 fibroblast supports this splicing panel and the utility of fibroblasts as a screening tool (See FIGS. 7A-E).

DM2 fibroblasts = assay: RT-PCR analysis of INSR exon 11 mis-splicing in DM2 fibroblasts; type: cell-based, human; conditions: FIG. 2B
Description: as §1, §2

DM1 fibroblast = assay: MTT cell viability in DM1 fibroblast; type: cell-based, human; conditions: for MTT cell viability: DM1 fibroblast, low micromolar concentrations, FIG. 2C
Description: as §1
Effects on cellular health: To monitor the overall health of cells, treated vs. untreated control and DM patient fibroblast and myoblast/myotube lines are tested across a dose range where one observes a reduction in toxic CUG/CCUG RNA levels and rescue of mis-splicing. Cell health is monitored using the lactate dehydrogenase (LDH) and methylthiazol tetrazolium (MTT) assays, to measure membrane integrity (cell death) and metabolic activity (cell viability), along with monitoring rates of cell growth. Mutagenicity is assessed using the Ames test. Alterations in cell death, cell viability and rates of cell growth and mutagenicity is combined with data from control cells to determine the overall effect on cell health due to MPC treatment. As shown in FIGS. 2A-2E, HM19B rescues splicing at more than 50-fold lower concentrations than at concentrations where cell death is starting to be observed.

HSA^LR/LR mice = assay: RT-PCR splicing rescue in HSALR/LR DM1 mouse model (muscle); type: in vivo; conditions: for rescue of mis-splicing (DM1 splicing) in HSALR mice: HSALR mouse model; for RT-PCR splicing rescue of Atp2a1 exon 22: TA muscle of HSA^LR/LR mice (N=2), 7 days, FIG. 8A
Source text: (§3) New MPCs, including HM33, are being systematically designed to study bioavailability. […] Systematic modification of current MPCs (See e.g., FIGS. 5A and 5B) is used to assess the contribution of each change to bioavailability with the goal of improving BBB and other organ penetration.
(§4) The 48-hour injection schedule and starting concentrations are based upon previous treatment regimens and preliminary pharmacokinetic analysis. However, the schedule or treatments is subject to change depending upon the candidate compound's history and performance in e.g., Steps 1 and 2 of FIG. 1. After 1 week of treatment, mice are tested for health (body weight, body condition score) then sacrificed, and muscle tissue (tibialis anterior, vastus lateralis, liver, kidney & brain) harvested and tested for in vivo changes in molecular (foci, splicing and MBNL1 colocalization) and histopathological features (central nuclei, HSA-based models only). To assess molecular features, frozen muscle samples are tested for: mis-splicing changes (RT-PCR and RNAseq); transgene and endogenous DMPK expression (qRT-PCR); off-target effects (RNAseq); RNA foci (FISH); MBNL1 colocalization (FISH/IF); CLCN1 staining (IF); and central nuclei (H&E). Frozen muscle and brain samples from each mouse model are analyzed by UPLC-MS/MS to determine preliminary bioavailability, which is correlated with molecular activity (muscle only for HSA-based and brain only for DMPK480/480) to assess therapeutic potential.

DM1 and DM2 cell lines = assay: Splicing rescue and toxicity in DM1 and DM2 patient-derived cell lines; type: cell-based, human; conditions: DM fibroblasts and myotubes; nanomolar range where stated
Source text: Referring to FIG. 1, Step 2, a process flow includes characterizing the best-in-class MPCs for in cellulo activity and therapeutic potential. Rationale and preliminary data: Because of the multisystemic nature of pathogenesis in myotonic dystrophy, it is desirable to evaluate the therapeutic potential of excellent MPCs in multiple DM cellular models as well as in control models in order to best prioritize compounds for in vivo testing. The cellular activity of MPC lead panel is systematically evaluated starting with HM19A & HM19B in 2 independent DM1 and DM2 patient-derived fibroblast lines and 2 independent DM1 myoblast/myotube differentiation models along with age and gender-matched control cell lines. Potential blood brain barrier penetrance is evaluated using the established MDR1-MDCK monolayer assay. This aim will facilitate the informed selection of the top performing compounds in cellular studies for testing in animal models of DM (See e.g., FIG. 1, step 3).
as §2

Dmpk^480/480 mice = assay: RT-PCR splicing rescue in Dmpk480/480 DM1 mouse model (choroid plexus/CNS); type: in vivo; conditions: for RT-PCR splicing rescue of Lnf2 exon22: choroid plexus of Dmpk^480/480 mice (N=2), 10 mg/kg, FIG. 8B
Source text: as §3
as §4, with “Short-term Studies: To select excellent candidates for long-term studies, cohorts (N=6) of one-month old age- and gender-matched animals from both muscle (homozygous HSALR/LR or heterozygous HSAXLR) and brain (Dmpk480/480) mouse models are treated. Both transgenic (N=6) and matching wild-type (N=6) mice are treated every two days at 3 different concentrations of lead MPCs (2, 5 and 10 mg/kg) or PBS via IP injection for a period of 1 week. The” for “The”

DM1 myoblasts = assay: RT-PCR analysis of mis-splicing events in DM1 myoblasts; type: cell-based, human; conditions: nanomolar concentrations, FIG. 2D
Source text: as §1

CUG repeat RNA = assay: Circular dichroism (CD) spectroscopy with CUG repeat RNA; type: binding

| SMILES | rescue of DM1 splicing (patient-derived myotubes) | rescue of INSR exon 11 mis-splicing (DM1 fibroblasts) | rescue of INSR exon 11 mis-splicing (DM2 fibroblasts) | MTT cell viability (DM1 fibroblast) | rescue of mis-splicing (DM1 splicing) in HSALR mice (HSA^LR/LR mice) | RT-PCR splicing rescue of Atp2a1 exon 22 (HSA^LR/LR mice) | splicing rescue in patient-derived cell lines (DM1 and DM2 cell lines) | RT-PCR splicing rescue of Lnf2 exon22 (Dmpk^480/480 mice) | concentration margin between splicing rescue and concentrations where cell death is starting to be observed (DM1 fibroblast; FIGS. 2A-2E) | rescue of MBNL1 exon 5 mis-splicing (DM1 myoblasts) | rescue of MBNL2 exon 5 mis-splicing (DM1 myoblasts) | rescue in the CNS compared to DB829 (Dmpk^480/480 mice; Dmpk^480/480 mice, FIG. 8C) | rescue in the Dmpk480/480 mice (Dmpk^480/480 mice; early preliminary data) | interaction with CUG repeat RNA by CD spectroscopy (CUG repeat RNA) |
| --- | --- | --- | --- | --- | --- | --- | --- | --- | --- | --- | --- | --- | --- | --- |
| COc1cc2c(c(OC)c1OC)-c1ccc(OC)c(=O)cc1[C@@H](NC(C)=O)CC2 [colchicine] | rescue DM1 splicing | – | – | – | – | – | – | – | – | – | – | – | – | – |
| c1ccc2[nH]c(-c3ccc(-c4ccc(-c5ccc(-c6nc7ccccc7[nH]6)cc5)o4)cc3)nc2c1 [HM19A] | – | strong rescue | strong rescue | no effect on viability | significantly rescuing mis-splicing | splicing rescue | significantly rescuing mis-splicing | – | – | – | – | – | – | – |
| N=C(N)c1ccc(-c2ccc(-c3ccc(C(=N)N)cn3)o2)nc1 [DB829, reference compound] | – | – | – | – | – | – | – | splicing rescue | – | – | – | – | – | – |
| CN1CCN(c2ccc3nc(-c4ccc(-c5ccc6c(c5)oc5cc(-c7ccc(-c8nc9ccc(N%10CCN(C)CC%10)cc9[nH]8)cc7)ccc56)cc4)[nH]c3c2)CC1 [HM19B] | – | strong rescue | strong rescue | no effect on viability | significantly rescuing mis-splicing | splicing rescue | splicing rescue at the nanomolar concentration; also recorded: significantly rescuing mis-splicing | splicing rescue | more than 50 fold | promising rescue | promising rescue | reduced rescue | capable of rescue | surface interaction between ligand and substrate |
